Test results as given in patent publication US7596407B2, “Transdermal iontophoretic delivery of piperazinyl-2(3H)-benzoxazolone compounds” (priority 2004, dated 2009).

Assays:
[1] = Solubility in donor buffer
[2] = HPLC-UV analysis of sample solutions for oxidation or degradation products; format: physicochemical; conditions: HPLC with UV detection, 215 nm
Procedure: 7-(4-methyl-1-piperazinyl)-2(3H)-benzoxazolone was analyzed using HPLC with UV detection (Waters Chromatography, Etten Leur, The Netherlands). A Chromsep SS column was used (250*3 mm L*i.d.) thermostatted at 30° C. The mobile phase consisted of acetonitrile/methanol/0.7 g/l ammonium acetate buffer at pH 5.6 ([…] v/v) and was used at 0.5 ml/min. The detection wavelength was 215 nm.

[3] = Iontophoretic transport across human stratum corneum, three-chamber continuous flow-through diffusion cells; format: in vitro ADME; conditions: for iontophoretic flux (averages±s.e.m.): 4 g/l NaCl, citrate buffer pH 5.5, 0.5 mA/cm^2; for mean transport during the iontophoretic period: citrate buffer pH 5.5, 0.5 mA/cm^2, no NaCl added; for mean transport during the iontophoretic period (averages±s.e.m.): drug 35 mg/ml, pH 5.5, 0.5 mA/cm^2
Procedure: Human Stratum Corneum (HSC) was prepared from dermatomed healthy human skin. Within 24 hours after surgical removal of the human skin (abdominal or breast), residual subcutaneous fat was removed. To avoid interference with contaminating subcutaneous fat, the skin surface was carefully wiped with a tissue paper soaked in 70% ethanol. The skin was dermatomed to a thickness of about 300 μm using a Padgett Electro Dermatome Model B (Kansas City, USA). It was then incubated with the dermal side on Whatman paper soaked in a solution of 0.1% trypsin in PBS overnight at 4° C. and subsequently for 1 hour at 37° C. Then HSC was peeled off from the underlying epidermis and dermis. Remaining trypsin activity was blocked by bathing HSC in a 0.1% trypsin inhibitor solution in PBS, pH 7.4. HSC was washed several times in water and stored in a silica gel containing desiccator in a N2 environment to inhibit oxidation of lipids.
(§1) 7-(4-methyl-1-piperazinyl)-2(3H)-benzoxazolone as a HCl salt was dissolved in 10 mM sodium citrate solution. The pH was adjusted to pH 5.5 with 10 mM citric acid. 7-(4-benzyl-1-piperazinyl)-2(3H)-benzoxazolone as a mesylate salt was dissolved in 0.1 M potassium phosphate buffer. The pH was adjusted to pH 4.0 using o-phosphoric acid.
Iontophoresis experiments with 7-(4-methyl-1-piperazinyl)-2(3H)-benzoxazolone were performed using 9-channel computer controlled power supply to provide constant current (Electronics Department, Gorlaeus Laboratories, Leiden University, The Netherlands.) Alternatively the commercial available Power Supply PCT-MK1 of Moor Instruments, UK can be used. A silver plate electrode was used as an anode (e.g. Silver foil >99.99% pure, 1.0 mm thick (Aldrich article nr. 36,943-8), 5 cm long, 3 mm wide) and a silver/silver chloride electrode (prepared by repeatedly (2 or 3 times) dipping silver wire (>99.99% pure, Ø 1.0 mm (Aldrich art. Nr. 26,559-4), bended at the tip to produce a small projection (approx. 3 mm) at a right angle to the vertical electrode shaft in melted silver chloride powder (>99.999% pure, Aldrich art. Nr. 20,438-2) as a cathode. (Alternatively, the silver plate and silver/silver chloride electrodes can be prepared according to chapter 3.4.3. of Ajay K. Banga, Electrically Assisted Transdermal and Topical Drug Delivery, Taylor and Francis Group Ltd., London UK, 1998, ISBN 0-7484-0687-5. or can be purchased from a commercial supplier such as Iomed.)
All diffusion experiments were carried out at a constant current density of 0.5 mA/cm^2, using three chambers continuous flow through diffusion cells at room temperature. The diffusion set up consisted of a peristaltic pump, a fraction collector and 8 diffusion cells (for diffusion cell see FIG. 4). Stratum corneum was used for all diffusion studies. Human stratum corneum was hydrated for two hours in PBS pH 7.4 prior to mounting in the cells. Two pieces of stratum corneum were placed between the anodal and acceptor side, and between acceptor and cathodal side, with the apical side facing the anodal and cathodal compartments. Dialysis membrane (cut off 5,000 D) was used as supporting membrane for the stratum corneum. Parafilm rings were added for making a tight connection between the compartments. The temperature of the acceptor chamber was 37° C. The flow of PBS through the acceptor chamber was kept approximately constant for each cell during the experiment: 6-8 ml per hour. After six hours of passive diffusion, the current was switched on. The current was switched off at t=15 h. During a period of another 5 hours (post iontophoretic period) passive diffusion post iontophoresis was carried out. During iontophoresis, the current density was 0.5 mA/cm^2. The total resistance of the stratum corneum sheets was monitored during the experiment with two additional silver electrodes. A very low resistance is indicative of leakage of the stratum corneum in a cell. When this was observed, the diffusion data obtained were discarded. […]

[4] = Iontophoretic transport across hairless rat skin, vertical Franz diffusion cells; format: in vitro ADME; conditions: 30 mM NaCl; for change of iontophoretic flux with active substance concentration (FIG. 4): phosphate buffer pH 4.0
Source text: Hairless rats were euthanized by inhalation of carbon dioxide using an exposure chamber designed for such use half hour before start of experiment. The skin from the abdomen was carefully removed, making sure no muscle or fat was attached to the skin. The skin was then cut into small squares to fit the Franz diffusion set (Membrane Transport System, PermeGear, U.S.A) and placed in 0.1 M potassium phosphate buffer until mounted.
as §1
Iontophoresis experiments with 7-(4-benzyl-1-piperazinyl)-2(3H)-benzoxazolone were performed using vertical Franz diffusion cells (Membrane Transport System, PermeGear, U.S.A) hooked up to a Keithley 2400 source meter and the current monitored using a multimeter. The donor half was of the cell was exposed to room temperature (25° C.) while the receptor half was maintained at 37° C. Receptor compartment was continuously stirred. Freshly excised hairless rat skin was mounted on the vertical diffusion cells, after the receptor compartment had been filled with a suitable receptor media, which can maintain the sink condition. The receptor media had the same composition as the donor solution without the drug, so that the sink conditions could be maintained. The formulation was placed in the donor compartment. A silver wire was used as the anode in the donor and a silver/silver chloride wire was used as the cathode in the receptor. Current was applied for 3 hours using a constant current power source. However, sampling was continued till 24 hrs to see if enhanced delivery will stop on terminating current. Samples were taken at pre-determined time intervals from the receptor and analyzed by the HPLC as described below. Samples were replaced with fresh receptor medium and this was taken into consideration in the calculations.
7-(4-benzyl-1-piperazinyl)-2(3H)-benzoxazolone was analyzed using HPLC with UV detection (Waters Alliance system). A Chromsep SS column was used (150*3 mm L*i.d.) with particle size of 5 μm thermostatted at 40° C. The mobile phase was made using 1.54 g ammonium acetate in 460 ml of water (pH adjusted to 4.6 using acetic acid) and 540 ml of methanol and degassed. The flow rate was 0.5 ml/min. The detection wavelength was 243 nm. Injection volume was 10 μl.

Row | SMILES | share of the maximum solubility that a 35 mg/ml solution represents ([1]; 35 mg/ml, 10 mM citrate pH 5.5, 4 mg/ml NaCl) | share of the maximum solubility that a 55 mg/ml solution represents ([1]; 55 mg/ml in citrate buffer at pH 5.5 in the presence of 4 g/l NaCl) | share of the maximum solubility that a 75 mg/ml solution represents ([1]; 75 mg/ml in citrate buffer at pH 5.5) | dependence of solubility on NaCl concentration ([1]; citrate pH 5.5, NaCl 0-4 mg/ml) | oxidation or degradation products in chromatograms of the sample solutions [2] | iontophoretic flux (averages±s.e.m.) ([3]; donor concentration 20 mg/ml) | mean transport during the iontophoretic period ([3]; donor concentration 20 mg/ml) | iontophoretic flux (averages±s.e.m.) ([3]; donor concentration 35 mg/ml) | mean transport during the iontophoretic period ([3]; donor concentration 35 mg/ml) | iontophoretic flux (averages±s.e.m.) ([3]; donor concentration 55 mg/ml) | mean transport during the iontophoretic period ([3]; donor concentration 55 mg/ml) | mean transport during the iontophoretic period ([3]; donor concentration 75 mg/ml) | mean transport during the iontophoretic period (averages±s.e.m.) ([3]; sodium chloride 0 mg/ml) | mean transport during the iontophoretic period (averages±s.e.m.) ([3]; sodium chloride 2 mg/ml) | mean transport during the iontophoretic period (averages±s.e.m.) ([3]; sodium chloride 4 mg/ml) | permeation with iontophoresis as compared to passive delivery (FIG. 5) ([4]; current densities 0, 0.1, 0.3 and 0.5 mA) | relationship between flux and current density (FIG. 5) ([4]; 5 g/ml solution, current densities 0, 0.1, 0.3 and 0.5 mA) | change of iontophoretic flux with active substance concentration (FIG. 4) ([4]; further increase to 10 mg/ml) | change of iontophoretic flux with active substance concentration (FIG. 4) ([4]; increase from 1 mg/ml to 5 mg/ml)
1 | CN1CCN(c2cccc3[nH]c(=O)oc23)CC1.Cl [7-(4-methyl-1-piperazinyl)-2(3H)-benzoxazolone monohydrochloride] | 80% | 85% | 85% | increases with reducing NaCl concentration | No oxidation or degradation products of the compound were observed | 409±47 μg/hr/cm^2 | 394±26 μg/hr/cm^2 | 467±74 μg/hr/cm^2 | 383±42 μg/hr/cm^2 | 580±87 μg/hr/cm^2 | 459±59 μg/hr/cm^2 | 418±31 μg/hr/cm^2 | 471±65 μg/hr/cm^2 | 377±37 μg/hr/cm^2 | 424±50 μg/hr/cm^2 |  |  |  | 
2 | CS(=O)(=O)O.O=c1[nH]c2cccc(N3CCN(Cc4ccccc4)CC3)c2o1 [7-(4-benzyl-1-piperazinyl)-2(3H)-benzoxazolone mesylate] |  |  |  |  |  |  |  |  |  |  |  |  |  |  |  | considerably enhances the permeation | linear relationship between flux and current density | no increase in iontophoretic flux | increase in iontophoretic flux
